Publication PMC11520566, “Discovery of pyrazole-based analogs as CDK2 inhibitors with apoptotic-inducing activity: design, synthesis and molecular dynamics study” (RSC Advances, 2024)

Key:
Format in all cases: cell-based, human
[1] = tested on: SK-MEL-2; assay: NCI 60 five dose assay, Melanoma
[2] = tested on: IGROV1; assay: NCI 60 five dose assay, Ovarian cancer
[3] = tested on: HOP-92; assay: NCI 60 five dose assay, Non-small cell lung cancer
[4] = tested on: T-47D; assay: NCI 60 five dose assay, Breast cancer
[5] = tested on: NCI-H460; assay: NCI 60 five dose assay, Non-small cell lung cancer
[6] = tested on: MALME-3M; assay: NCI 60 five dose assay, Melanoma; conditions: for Percent Growth: MALME-3M
[7] = tested on: NCI-H226; assay: NCI 60 five dose assay, Non-small cell lung cancer
[8] = tested on: SF-268; assay: NCI 60 five dose assay, CNS cancer
[9] = tested on: SK-OV-3; assay: NCI 60 five dose assay, Ovarian cancer
[10] = tested on: RPMI-8226; assay: NCI 60 five dose assay, Leukemia
[11] = tested on: CAKI-1; assay: NCI 60 five dose assay, Renal cancer
[12] = tested on: RXF 393; assay: NCI 60 five dose assay, Renal cancer
[13] = tested on: MDA-MB-435; assay: NCI 60 five dose assay, Melanoma
[14] = tested on: 786-0; assay: NCI 60 five dose assay, Renal cancer
[15] = tested on: RPMI-8226; assay: NCI 60 single dose screen, Leukemia; conditions: single dose 10 μM
Experimental: (§1) The newly synthesized pyrazoles 2a–g, 7a–d, 8a and b, 9, and 10 were submitted to the National Cancer Institute (NCI) Developmental Therapeutics Program (http://www.dtp.nci.nih.gov) for assessment of their potential antiproliferative activity against a panel of NCI 60 cancer cell lines. All compounds were approved for screening against the approved 60 cancer cell lines at a single dose of 10 μM. The human cancer cell lines were derived from 9 variant cancer types including leukemia, melanoma, lung, colon, CNS, ovarian, renal, prostate and breast cancers. The results are presented as percentage of growth inhibition (GI%) of the screened compounds against the full panel of cell lines.
(§2) Under sterile conditions, the cell lines were grown in RPMI 1640 media (Gibco, NY, USA) supplemented with 10% fetal bovine serum (Biocell, CA, USA), and […] cell/mL was used to test the growth inhibition activity of the synthesized compounds. The compounds with concentrations ranging from 0.01 to 100 μM were prepared in phosphate buffer saline. Each compound was initially solubilized in dimethyl sulfoxide (DMSO); however, each final dilution contained less than 1% DMSO. Solutions of different concentrations (0.2 mL) were pipetted into the separate well of a microtiter tray in duplicate. Cell culture (1.8 mL) containing a cell population of […] cells per mL was pipetted into each well. Controls, containing only phosphate buffer saline and DMSO at identical dilutions, were also prepared in the same manner. These cultures were incubated in a humidified incubator at 37 °C. The incubator was supplied with 5% CO2 atmosphere. After 48 h, the cells in each well were diluted 10 times with saline and counted using a Coulter counter. The counts were corrected for the dilution.[34]

[16] = tested on: CCRF-CEM; assay: NCI 60 single dose screen, Leukemia; conditions: single dose 10 μM
Experimental: as §1, §2

[17] = tested on: SF-268; assay: NCI 60 single dose screen, CNS cancer; conditions: single dose 10 μM
Experimental: as §1
(§3) Under sterile conditions, the cell lines were grown in RPMI 1640 media (Gibco, NY, USA) supplemented with 10% fetal bovine serum (Biocell, CA, USA), and […] cell/mL was used to test the growth inhibition activity of the synthesized compounds. The compounds with concentrations ranging from 0.01 to 100 μM were prepared in phosphate buffer saline. Each compound was initially solubilized in dimethyl sulfoxide (DMSO); however, each final dilution contained less than 1% DMSO. Solutions of different concentrations (0.2 mL) were pipetted into the separate well of a microtiter tray in duplicate. […] After 48 h, the cells in each well were diluted 10 times with saline and counted using a Coulter counter. […]

[18] = tested on: SF-295; assay: NCI 60 single dose screen, CNS cancer; conditions: single dose 10 μM
Experimental: as §1, §3

[19] = Homo sapiens, read-out: LC50 (the source's name)

## CC(=NNc1ccc(S(N)(=O)=O)cc1)c1ccc(NN=C2C(=O)NN=C2Nc2ccccc2)cc1 [Compound 4, 4-(2-(1-(4-(2-(5-oxo-3-(phenylamino)-1,5-dihydro-4H-pyrazol-4-ylidene)hydrazinyl)phenyl)ethylidene)hydrazinyl)benzene sulfonamide]
[1]; Homo sapiens
  GI50: 2.11 µM
[1]; [19]
  CC50: 9.1 µM
[1]; Log10 Concentration -4.0 Molar
  Percent Growth: -96%
[1]; Log10 Concentration -5.0 Molar
  Percent Growth: -56%
[1]; Log10 Concentration -6.0 Molar
  Percent Growth: 101%
[1]; Log10 Concentration -7.0 Molar
  Percent Growth: 104%
[1]; Log10 Concentration -8.0 Molar
  Percent Growth: 98%
[2]; Homo sapiens, IGROV-1
  GI50: 4.5 µM
[2]; Homo sapiens, IGROV-1, read-out: LC50 (the source's name)
  CC50: 43.2 µM
[2]; Log10 Concentration -4.0 Molar
  Percent Growth: -97%
[2]; Log10 Concentration -5.0 Molar
  Percent Growth: 32%
[2]; Log10 Concentration -6.0 Molar
  Percent Growth: 85%
[2]; Log10 Concentration -7.0 Molar
  Percent Growth: 94%
[2]; Log10 Concentration -8.0 Molar
  Percent Growth: 90%
[3]; Homo sapiens
  GI50: 1.3 µM
[3]; [19]
  CC50: 30.7 µM
[3]; Log10 Concentration -4.0 Molar
  Percent Growth: -89%
[3]; Log10 Concentration -5.0 Molar
  Percent Growth: -13%
[3]; Log10 Concentration -6.0 Molar
  Percent Growth: 58%
[3]; Log10 Concentration -7.0 Molar
  Percent Growth: 81%
[3]; Log10 Concentration -8.0 Molar
  Percent Growth: 74%
[4]; Homo sapiens, T47D
  GI50: 2.22 µM
[4]; Homo sapiens, T47D, read-out: LC50 (the source's name)
  CC50: 23.9 µM
[4]; Log10 Concentration -4.0 Molar
  Percent Growth: -88%
[4]; Log10 Concentration -5.0 Molar
  Percent Growth: -27%
[4]; Log10 Concentration -6.0 Molar
  Percent Growth: 91%
[4]; Log10 Concentration -7.0 Molar
  Percent Growth: 98%
[4]; Log10 Concentration -8.0 Molar
  Percent Growth: 90%
[5]; Homo sapiens
  GI50: 3.21 µM
[5]; [19]
  CC50: 45.3 µM
[5]; Log10 Concentration -4.0 Molar
  Percent Growth: -78%
[5]; Log10 Concentration -5.0 Molar
  Percent Growth: 4%
[5]; Log10 Concentration -6.0 Molar
  Percent Growth: 97%
[5]; Log10 Concentration -7.0 Molar
  Percent Growth: 103%
[5]; Log10 Concentration -8.0 Molar
  Percent Growth: 102%
[6]; Homo sapiens, Malme-3M
  GI50: 1.98 µM
[6]; Homo sapiens, Malme-3M, read-out: LC50 (the source's name)
  CC50: 7.49 µM
[6]; Log10 Concentration -4.0 Molar
  Percent Growth: -100%
[6]; Log10 Concentration -5.0 Molar
  Percent Growth: -72%
[6]; Log10 Concentration -6.0 Molar
  Percent Growth: 102%
[6]; Log10 Concentration -7.0 Molar
  Percent Growth: 97%
[6]; Log10 Concentration -8.0 Molar
  Percent Growth: 89%
[7]; Homo sapiens
  GI50: 3.31 µM
[7]; [19]
  CC50: 35.1 µM
[7]; Log10 Concentration -4.0 Molar
  Percent Growth: -100%
[7]; Log10 Concentration -5.0 Molar
  Percent Growth: 10%
[7]; Log10 Concentration -6.0 Molar
  Percent Growth: 93%
[7]; Log10 Concentration -7.0 Molar
  Percent Growth: 102%
[7]; Log10 Concentration -8.0 Molar
  Percent Growth: 96%
[8]; Homo sapiens
  GI50: 2.22 µM
[8]; [19]
  CC50: 31.5 µM
[8]; Log10 Concentration -4.0 Molar
  Percent Growth: -77%
[8]; Log10 Concentration -5.0 Molar
  Percent Growth: -23%
[8]; Log10 Concentration -6.0 Molar
  Percent Growth: 89%
[8]; Log10 Concentration -7.0 Molar
  Percent Growth: 95%
[8]; Log10 Concentration -8.0 Molar
  Percent Growth: 85%
[9]; Homo sapiens
  GI50: 2.34 µM
[9]; [19]
  CC50: 23.7 µM
[9]; Log10 Concentration -4.0 Molar
  Percent Growth: -98%
[9]; Log10 Concentration -5.0 Molar
  Percent Growth: -21%
[9]; Log10 Concentration -6.0 Molar
  Percent Growth: 92%
[9]; Log10 Concentration -7.0 Molar
  Percent Growth: 102%
[9]; Log10 Concentration -8.0 Molar
  Percent Growth: 89%
[10]; Homo sapiens
  GI50: 3.36 µM
[10]; [19]
  CC50: > 100 µM
[10]; Log10 Concentration -4.0 Molar
  Percent Growth: -15%
[10]; Log10 Concentration -5.0 Molar
  Percent Growth: 12%
[10]; Log10 Concentration -6.0 Molar
  Percent Growth: 92%
[10]; Log10 Concentration -7.0 Molar
  Percent Growth: 101%
[10]; Log10 Concentration -8.0 Molar
  Percent Growth: 101%
[11]; Homo sapiens
  GI50: 12.5 µM
[11]; [19]
  CC50: 50.1 µM
[11]; Log10 Concentration -4.0 Molar
  Percent Growth: -100%
[11]; Log10 Concentration -5.0 Molar
  Percent Growth: 66%
[11]; Log10 Concentration -6.0 Molar
  Percent Growth: 96%
[11]; Log10 Concentration -7.0 Molar
  Percent Growth: 102%
[11]; Log10 Concentration -8.0 Molar
  Percent Growth: 96%
[12]; Homo sapiens
  GI50: 1.1 µM
[12]; [19]
  CC50: 21.1 µM
[12]; Log10 Concentration -4.0 Molar
  Percent Growth: -76%
[12]; Log10 Concentration -5.0 Molar
  Percent Growth: -37%
[12]; Log10 Concentration -6.0 Molar
  Percent Growth: 54%
[12]; Log10 Concentration -7.0 Molar
  Percent Growth: 99%
[12]; Log10 Concentration -8.0 Molar
  Percent Growth: 103%
[13]; Homo sapiens
  GI50: 2.07 µM
[13]; [19]
  CC50: 17.8 µM
[13]; Log10 Concentration -4.0 Molar
  Percent Growth: -83%
[13]; Log10 Concentration -5.0 Molar
  Percent Growth: -39%
[13]; Log10 Concentration -6.0 Molar
  Percent Growth: 91%
[13]; Log10 Concentration -7.0 Molar
  Percent Growth: 98%
[13]; Log10 Concentration -8.0 Molar
  Percent Growth: 90%
[14]; Homo sapiens
  GI50: 2.14 µM
[14]; [19]
  CC50: 24.7 µM
[14]; Log10 Concentration -4.0 Molar
  Percent Growth: -94%
[14]; Log10 Concentration -5.0 Molar
  Percent Growth: -22%
[14]; Log10 Concentration -6.0 Molar
  Percent Growth: 85%
[14]; Log10 Concentration -7.0 Molar
  Percent Growth: 96%
[14]; Log10 Concentration -8.0 Molar
  Percent Growth: 92%
[15]
  GI%: 96.53%
[16]
  GI%: 96.41%
[17]
  GI%: 90.67%
[18]
  GI%: 94.88%
